We go through 18 molecules from article PMC5773950 (British Journal of Pharmacology, 2018).

Read-outs that look alike come from different tables or passages of the source. Marks after values point to notes of the source that are not given here.

What is called IC50 is the point on the concentration scale where inhibition reaches its midpoint. The Ki is a dissociation constant, usually derived from enzyme kinetics or from competition with a known ligand.

One data set deals with human NET (Homo sapiens, UniProt P23975). Put plainly: cell-based. In kind it is cell-based.
A further data set deals with human DAT (Homo sapiens, UniProt Q01959). Nature of the data set: cell-based.
The next data set deals with T1, 5‐HT1A receptor (Homo sapiens, UniProt P08908).
T1 sequence (P08908 1-422): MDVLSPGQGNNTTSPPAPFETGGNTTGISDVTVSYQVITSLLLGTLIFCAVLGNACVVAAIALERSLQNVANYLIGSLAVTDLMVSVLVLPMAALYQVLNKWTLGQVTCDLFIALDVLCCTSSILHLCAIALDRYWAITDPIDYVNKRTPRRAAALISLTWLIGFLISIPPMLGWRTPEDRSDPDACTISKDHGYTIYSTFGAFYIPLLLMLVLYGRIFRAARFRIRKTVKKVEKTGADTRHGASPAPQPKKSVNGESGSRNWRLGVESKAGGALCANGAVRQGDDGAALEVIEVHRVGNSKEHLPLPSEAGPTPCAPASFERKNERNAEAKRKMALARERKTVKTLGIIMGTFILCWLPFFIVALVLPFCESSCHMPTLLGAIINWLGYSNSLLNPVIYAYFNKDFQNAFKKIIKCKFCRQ
Nature of the data set: biochemical. In kind it is binding.

For data set [1] the following is noted: in vivo.
A further data set deals with 5‐HT2A receptor (Homo sapiens, UniProt P28223). Nature of the data set: biochemical. In kind it is binding.
A further data set has as its target human SERT (Homo sapiens, UniProt P31645). Nature of the data set: cell-based.
The conditions of data set [2]: human.
The conditions of data set [3]: human. This is another data set of the same source.
In the next data set the target is T2, 5‐HT2C receptor (Homo sapiens, UniProt P28335).
T2 sequence (P28335 33-458): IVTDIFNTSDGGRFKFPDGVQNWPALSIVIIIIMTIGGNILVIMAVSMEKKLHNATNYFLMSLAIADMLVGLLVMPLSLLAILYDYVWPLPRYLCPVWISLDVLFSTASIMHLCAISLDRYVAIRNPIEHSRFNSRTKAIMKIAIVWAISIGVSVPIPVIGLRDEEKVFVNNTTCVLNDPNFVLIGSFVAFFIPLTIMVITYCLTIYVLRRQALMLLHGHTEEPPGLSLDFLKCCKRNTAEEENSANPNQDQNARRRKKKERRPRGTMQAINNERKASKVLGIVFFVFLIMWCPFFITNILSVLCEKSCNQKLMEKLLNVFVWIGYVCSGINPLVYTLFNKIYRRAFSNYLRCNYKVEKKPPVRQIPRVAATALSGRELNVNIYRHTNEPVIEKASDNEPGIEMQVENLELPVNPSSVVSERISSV
Put plainly: biochemical. In kind it is binding.

For data set [4] the following is noted: in vivo; cited from earlier work.
The conditions of data set [5]: human, in vivo.
Where [6] appears, read: read-out: 5‐HT1A Receptor binding Ki ± SD.
The mark [7] stands for this setting: read-out: 5‐HT2A Receptor binding Ki ± SD.
The mark [8] stands for this setting: read-out: 5‐HT2C Receptor binding Ki ± SD.

Chain of human SERT (P31645 whole entry): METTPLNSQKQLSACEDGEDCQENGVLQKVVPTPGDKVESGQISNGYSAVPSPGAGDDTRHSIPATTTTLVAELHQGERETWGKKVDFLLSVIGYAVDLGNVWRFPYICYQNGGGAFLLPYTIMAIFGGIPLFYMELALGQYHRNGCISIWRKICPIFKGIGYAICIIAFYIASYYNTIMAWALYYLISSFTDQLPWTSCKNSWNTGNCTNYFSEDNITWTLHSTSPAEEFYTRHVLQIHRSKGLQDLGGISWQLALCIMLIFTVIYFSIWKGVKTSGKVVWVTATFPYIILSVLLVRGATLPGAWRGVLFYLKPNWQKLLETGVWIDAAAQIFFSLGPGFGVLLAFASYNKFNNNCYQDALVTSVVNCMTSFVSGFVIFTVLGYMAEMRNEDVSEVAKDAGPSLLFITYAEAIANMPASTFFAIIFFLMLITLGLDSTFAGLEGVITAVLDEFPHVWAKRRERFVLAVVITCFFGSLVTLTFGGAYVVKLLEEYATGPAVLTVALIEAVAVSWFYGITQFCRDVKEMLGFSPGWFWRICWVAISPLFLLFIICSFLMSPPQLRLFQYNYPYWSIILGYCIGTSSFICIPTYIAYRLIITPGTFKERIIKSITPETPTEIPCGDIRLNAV
Chain of 5‐HT2A receptor (P28223 whole entry): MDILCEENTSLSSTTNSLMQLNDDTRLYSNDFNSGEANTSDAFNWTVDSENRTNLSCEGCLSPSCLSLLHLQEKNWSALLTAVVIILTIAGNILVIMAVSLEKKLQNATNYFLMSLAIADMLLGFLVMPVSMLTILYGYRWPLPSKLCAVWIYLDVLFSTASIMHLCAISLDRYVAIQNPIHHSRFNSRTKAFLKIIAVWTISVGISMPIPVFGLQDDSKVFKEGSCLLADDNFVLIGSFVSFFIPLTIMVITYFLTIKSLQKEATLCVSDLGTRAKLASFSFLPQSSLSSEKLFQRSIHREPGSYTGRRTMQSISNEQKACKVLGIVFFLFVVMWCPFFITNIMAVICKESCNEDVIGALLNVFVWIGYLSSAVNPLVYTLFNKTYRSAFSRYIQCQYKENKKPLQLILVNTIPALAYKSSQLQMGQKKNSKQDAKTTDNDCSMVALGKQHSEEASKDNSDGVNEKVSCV
Chain of human NET (P23975 whole entry): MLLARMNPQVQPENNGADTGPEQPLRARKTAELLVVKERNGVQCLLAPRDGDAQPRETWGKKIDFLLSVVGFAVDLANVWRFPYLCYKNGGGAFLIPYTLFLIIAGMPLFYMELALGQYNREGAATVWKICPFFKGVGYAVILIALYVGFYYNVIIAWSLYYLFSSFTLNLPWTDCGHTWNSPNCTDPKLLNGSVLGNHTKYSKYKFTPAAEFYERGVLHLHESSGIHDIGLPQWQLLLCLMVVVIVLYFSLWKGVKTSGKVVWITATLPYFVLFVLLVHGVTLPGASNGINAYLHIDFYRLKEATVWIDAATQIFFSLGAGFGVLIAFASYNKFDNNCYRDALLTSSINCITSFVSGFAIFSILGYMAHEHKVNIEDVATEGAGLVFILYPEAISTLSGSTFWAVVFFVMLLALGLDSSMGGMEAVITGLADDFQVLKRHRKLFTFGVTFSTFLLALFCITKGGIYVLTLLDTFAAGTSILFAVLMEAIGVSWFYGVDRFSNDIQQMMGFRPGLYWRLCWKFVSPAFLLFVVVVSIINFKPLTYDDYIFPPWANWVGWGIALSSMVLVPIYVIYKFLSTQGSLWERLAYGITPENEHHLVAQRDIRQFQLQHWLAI
Chain of human DAT (Q01959 whole entry): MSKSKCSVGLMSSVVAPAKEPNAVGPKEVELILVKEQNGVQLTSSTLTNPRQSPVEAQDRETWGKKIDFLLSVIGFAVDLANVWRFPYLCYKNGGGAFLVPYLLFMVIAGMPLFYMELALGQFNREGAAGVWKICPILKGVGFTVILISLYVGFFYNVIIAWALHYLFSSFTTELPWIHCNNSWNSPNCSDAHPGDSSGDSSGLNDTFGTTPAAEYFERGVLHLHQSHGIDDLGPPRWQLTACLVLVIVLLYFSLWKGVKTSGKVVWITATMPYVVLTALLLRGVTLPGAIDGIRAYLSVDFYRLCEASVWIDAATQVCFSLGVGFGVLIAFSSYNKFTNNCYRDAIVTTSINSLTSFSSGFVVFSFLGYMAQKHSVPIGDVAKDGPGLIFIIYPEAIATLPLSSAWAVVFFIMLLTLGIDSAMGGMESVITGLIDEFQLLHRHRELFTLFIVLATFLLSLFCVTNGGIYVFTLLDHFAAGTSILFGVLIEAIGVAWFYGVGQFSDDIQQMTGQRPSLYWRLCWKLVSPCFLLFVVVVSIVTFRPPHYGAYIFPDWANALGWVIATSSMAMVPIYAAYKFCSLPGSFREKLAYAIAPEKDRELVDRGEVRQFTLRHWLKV

As to `CN(C)C[C@H]1CCCC[C@]1(O)c1cccc(O)c1` (relative stereo) [O‐desmethyltramadol, O‐desmethyl‐cis‐tramadol], the 50% inhibitory concentration (IC50) at human NET (read-out: NET IC50 (95% CI)) was 6.1 µM; at human DAT (read-out: DAT IC50 (95% CI)) it was greater than 100 µM. For the same molecule, the Ki on 5‐HT1A receptor (setting [6]) is greater than 17 µM; at 5‐HT2A receptor (setting [7]), greater than 13 µM. Further, the “Cu,brain” value in [1] was 0.1–1.1 ^k μM.
For `CC(=O)O[C@H]1C=C[C@H]2[C@H]3Cc4ccc(O)c5c4[C@@]2(CCN3C)[C@H]1O5` [6‐Acetylmorphine, 6‐acetylmorphine], the concentration for half-maximal inhibition (IC50) against human SERT, at human NET and against human DAT was greater than 100 µM in each case. Further, the inhibitory constant (Ki) at 5‐HT1A receptor is greater than 17 µM; at 5‐HT2A receptor, greater than 13 µM.
`CN(C)CCCC1(c2ccc(F)cc2)OCc2cc(C#N)ccc21` (centres unmarked) [Citalopram]: the “Medline database: number of published cases of serotonin syndrome” value (“Medline database: number” below) in [2] turned out to be 57. Besides, in data set [3], the “WHO database: cases of serotonin syndrome, only suspected cause” value worked out at 178 and the “WHO database: cases of serotonin syndrome, only suspected cause or among others” value amounted to 777.
Regarding `COc1ccc2c3c1O[C@H]1[C@@H](O)C=C[C@H]4[C@@H](C2)N(C)CC[C@@]341` [Codeine], the IC50 on human SERT, against human NET and on human DAT was greater than 100 µM in each case. Besides, the “Medline database: number” value in data set [2] is on record as 0. Further, the “WHO database: cases of serotonin syndrome, only suspected cause” value in data set [3] was 0. Further, in data set [3], the “WHO database: cases of serotonin syndrome, only suspected cause or among others” value amounted to 32. Besides, the figures for the inhibition constant (Ki) at 5‐HT1A receptor and on 5‐HT2A receptor were greater than 17 µM and greater than 13 µM, respectively.
As to `COc1ccc2c(c1)[C@]13CCCC[C@@H]1[C@H](C2)N(C)CC3` [Dextromethorphan], the “Medline database: number” value in [2] came out at 12. For the same molecule, the IC50 against human NET was 5.8 µM; at human DAT it was greater than 100 µM. In addition, the “WHO database: cases of serotonin syndrome, only suspected cause” value in data set [3] was 7. The “WHO database: cases of serotonin syndrome, only suspected cause or among others” value in data set [3] came to 86. Besides, at 5‐HT1A receptor, the inhibition constant Ki is greater than 17 µM. In addition, in data set [1] (human), the “Cu,brain” value is recorded as 0–0.44 ^d μM.
With `COc1ccc2c3c1O[C@H]1[C@@H](O)CC[C@H]4[C@@H](C2)N(C)CC[C@@]341` [Dihydrocodeine], the concentration for half-maximal inhibition (IC50) against human SERT, against human NET and against human DAT was greater than 100 µM in each case. In data set [2], the “Medline database: number” value is given as 0. Moreover, the “WHO database: cases of serotonin syndrome, only suspected cause” value in data set [3] was 0. Besides, the “WHO database: cases of serotonin syndrome, only suspected cause or among others” value in data set [3] was 4. In addition, the values for the Ki at 5‐HT1A receptor and at 5‐HT2A receptor were greater than 17 µM and greater than 13 µM, respectively.
As for `CNCC[C@H](Oc1cccc2ccccc12)c1cccs1` [Duloxetine], the “Medline database: number” value in data set [2] stood at 20. Moreover, in data set [3], the “WHO database: cases of serotonin syndrome, only suspected cause” value came to 550 and the “WHO database: cases of serotonin syndrome, only suspected cause or among others” value was 993.
As to `CNCCC(Oc1ccc(C(F)(F)F)cc1)c1ccccc1` (centres unmarked) [Fluoxetine], in data set [2], the “Medline database: number” value is 54. In [3], the “WHO database: cases of serotonin syndrome, only suspected cause” value was 181 and the “WHO database: cases of serotonin syndrome, only suspected cause or among others” value stood at 641.
As for `CC(=O)Oc1ccc2c3c1O[C@H]1[C@@H](OC(C)=O)C=C[C@H]4[C@@H](C2)N(C)CC[C@@]341` [Heroin, diacetylmorphine], the concentration for half-maximal inhibition (IC50) at human SERT, at human NET and against human DAT was greater than 100 µM in each case. For the same molecule, the inhibition constant Ki was greater than 17 µM at 5‐HT1A receptor and greater than 13 µM on 5‐HT2A receptor.
With `COc1ccc2c3c1O[C@H]1C(=O)CC[C@H]4[C@@H](C2)N(C)CC[C@]314` [Hydrocodone], the half-inhibitory concentration (IC50) against human SERT, on human NET and against human DAT was greater than 100 µM in each case. Besides, the “Medline database: number” value in [2] came out at 2. The “WHO database: cases of serotonin syndrome, only suspected cause” value in data set [3] stood at 0. Moreover, the “WHO database: cases of serotonin syndrome, only suspected cause or among others” value in data set [3] amounted to 6. Moreover, the inhibition constant (Ki) is greater than 17 µM at 5‐HT1A receptor and greater than 13 µM on 5‐HT2A receptor.
For `CCC(=O)C(CC(C)N(C)C)(c1ccccc1)c1ccccc1` (centres unmarked) [Methadone], the inhibitory constant (Ki) on 5‐HT2C receptor is 2.2 ± 0.3 µM; at 5‐HT1A receptor, greater than 17 µM; on 5‐HT2A receptor it was 0.61 ± 0.03 µM. Moreover, the IC50 on human SERT was 0.23 µM; against human SERT (SERT inhibition in vitro IC50), 0.23 µM; against human NET it was 4.1 µM; against human DAT, greater than 100 µM. Besides, in data set [2], the “Medline database: number” value was 3. Also, the “WHO database: cases of serotonin syndrome, only suspected cause” value in data set [3] is listed as 2. In data set [3], the “WHO database: cases of serotonin syndrome, only suspected cause or among others” value was 93.
Regarding `CN1CC[C@]23c4c5ccc(O)c4O[C@H]2[C@@H](O)C=C[C@H]3[C@H]1C5` [Morphine], the “Medline database: number” value in data set [2] is 4. Moreover, in data set [3], the “WHO database: cases of serotonin syndrome, only suspected cause” value was 1 and the “WHO database: cases of serotonin syndrome, only suspected cause or among others” value was determined as 64. This molecule had a Ki at 5‐HT1A receptor greater than 17 µM. In addition, the inhibition constant (Ki) at 5‐HT2A receptor was greater than 13 µM.
On to `CN1CC[C@]23c4c5ccc(O)c4O[C@H]2C(=O)CC[C@@]3(O)[C@H]1C5` [Oxymorphone], for which the IC50 against human SERT, at human NET and against human DAT was greater than 100 µM throughout. For the same molecule, the “Medline database: number” value in data set [2] is 0. Moreover, the “WHO database: cases of serotonin syndrome, only suspected cause” value in data set [3] was 0. Besides, in [3], the “WHO database: cases of serotonin syndrome, only suspected cause or among others” value amounted to 3. Further, the results for the Ki at 5‐HT1A receptor and on 5‐HT2A receptor were greater than 17 µM and greater than 13 µM, respectively.
As to `CCOC(=O)C1(c2ccccc2)CCN(C)CC1` [Pethidine], the “Maximal plasma concentration after a single dose” value in data set [4] is reported as “e Maximal concentration after a single dose of pethidine of 50 mg intramuscularly was 2 μM (Erstad et al., 1997). The drug label indicates threefold higher maximal single doses of 150 mg i.m. resulting in threefold higher estimated concentrations up to 6 μM”. For the same molecule, the “Medline database: number” value in data set [2] came out at 5. Moreover, in data set [3], the “WHO database: cases of serotonin syndrome, only suspected cause” value was determined as 6 and the “WHO database: cases of serotonin syndrome, only suspected cause or among others” value worked out at 66. In addition, the “Cu,brain” value in [1] (human) was 0.7–5.4 ^h μM. Also, the “Cu,plasma” value in [5] is 0.3 to 2.3 µM. In addition, in data set [5] (im), the “estimated maximal plasma concentration at maximal single dose” value is reported as “e Maximal concentration after a single dose of pethidine of 50 mg intramuscularly was 2 μM (Erstad et al., 1997). The drug label indicates threefold higher maximal single doses of 150 mg i.m. resulting in threefold higher estimated concentrations up to 6 μM”.
With `COc1cccc(C2(O)CCCCC2CN(C)C)c1` (centres unmarked) [Tramadol], the “Ctotal,plasma” value in data set [4] is given as 0.1–2.5 ^a μM. Besides, in [2], the “Medline database: number” value was found to be 26. This molecule also displayed a half-maximal inhibitory concentration (IC50) against human NET of 2.1 µM. Also, the IC50 on human DAT was determined as 100 µM. Besides, in data set [3], the “WHO database: cases of serotonin syndrome, only suspected cause” value came out at 62 and the “WHO database: cases of serotonin syndrome, only suspected cause or among others” value came to 647. At 5‐HT1A receptor, this molecule showed a Ki greater than 17 µM. The “Cu,brain” value in data set [1] (human) is given as 0.1–4.6 ^j μM.
Turning to `COc1ccc(C(CN(C)C)C2(O)CCCCC2)cc1` (centres unmarked) [Venlafaxine], the inhibitory constant (Ki) on 5‐HT2C receptor is greater than 15 µM. Besides, the “Medline database: number” value in [2] came to 75. In data set [3], the “WHO database: cases of serotonin syndrome, only suspected cause” value is given as 240 and the “WHO database: cases of serotonin syndrome, only suspected cause or among others” value was determined as 859. Also, the Ki on 5‐HT1A receptor is greater than 17 µM.
Regarding `CCC(=O)C(C[C@H](C)N(C)C)(c1ccccc1)c1ccccc1` [d(S)‐methadone], the Ki on 5‐HT2C receptor (setting [8]) is 1.9 ± 0.2 µM; on 5‐HT1A receptor (setting [6]), greater than 17 µM; at 5‐HT2A receptor (setting [7]), 0.52 ± 0.11 µM. Besides, the results for the IC50 on human SERT (read-out: SERT IC50 (95% CI)), at human NET (read-out: NET IC50 (95% CI)) and at human DAT (read-out: DAT IC50 (95% CI)) were 5.6 µM, 69 µM and greater than 100 µM, respectively.
Consider `CCC(=O)C(C[C@@H](C)N(C)C)(c1ccccc1)c1ccccc1` [l(R)‐methadone], for which the figures for the Ki at 5‐HT2C receptor (setting [8]), at 5‐HT1A receptor (setting [6]) and at 5‐HT2A receptor (setting [7]) were 2.6 ± 0.3 µM, greater than 17 µM and 0.72 ± 0.61 µM, respectively. In addition, the IC50 was 0.28 µM at human SERT (read-out: SERT IC50 (95% CI)), 2.5 µM at human NET (read-out: NET IC50 (95% CI)) and greater than 100 µM on human DAT (read-out: DAT IC50 (95% CI)).
